Legend:
[1] = test system: indomethacin-induced small intestinal injury; assay: Indomethacin-induced small intestinal injury model in rats; format: in vivo, rat; conditions: SD rats, 30 min before and 6 hr after indomethacin
From the text: The suppressive effect of compound F on small intestinal injury was investigated using indomethacin-induced small intestinal injury model in rats. Administration of non-steroidal anti-inflammatory drugs (NSAIDs) is known to induce hemorrhagic injury in the small intestine of human.
Male SD rats, 7 weeks old (Charles River) were purchased, acclimated for 1 week and used for the study. The rats were grouped based on the body weight and subcutaneously administered with indomethacin (SIGMA, Lot No. 19F0018) at 15 mg/5 mL/kg to all groups to induce small intestinal injury. Compound F at doses of 0.01, 0.1 and 1 mg/kg was orally administered at a volume of 5 mL/kg 30 min before and 6 hr after the subcutaneous administration of indomethacin. To the control group was orally administered a solvent (1 vol % ethanol solution) at 5 mL/kg in the same manner. Eight animals were used for each group.
The rats were intravenously administered with 2 mL of 10 mg/mL Evans blue solution under ether anesthesia 23.5 hr after the indomethacin administration. After 30 min, the rats were bled to death from the abdominal aorta and caudal vena cava under ether anesthesia and the small intestine was isolated. […] The length and width of each ulcer were measured under a stereomicroscope, the area was calculated, and the sum thereof was taken as the total ulcer area.

[2] = biological target: T1, human EP4 (Homo sapiens, UniProt P35408); assay: Receptor affinity, tritium-labeled PGE2 binding to membranes of transfected COS-7 cells; conditions: binding affinity ratio
T1 construct: expressed in transfected cells; host or cells: COS-7 (membranes)
T1 sequence (P35408 whole entry): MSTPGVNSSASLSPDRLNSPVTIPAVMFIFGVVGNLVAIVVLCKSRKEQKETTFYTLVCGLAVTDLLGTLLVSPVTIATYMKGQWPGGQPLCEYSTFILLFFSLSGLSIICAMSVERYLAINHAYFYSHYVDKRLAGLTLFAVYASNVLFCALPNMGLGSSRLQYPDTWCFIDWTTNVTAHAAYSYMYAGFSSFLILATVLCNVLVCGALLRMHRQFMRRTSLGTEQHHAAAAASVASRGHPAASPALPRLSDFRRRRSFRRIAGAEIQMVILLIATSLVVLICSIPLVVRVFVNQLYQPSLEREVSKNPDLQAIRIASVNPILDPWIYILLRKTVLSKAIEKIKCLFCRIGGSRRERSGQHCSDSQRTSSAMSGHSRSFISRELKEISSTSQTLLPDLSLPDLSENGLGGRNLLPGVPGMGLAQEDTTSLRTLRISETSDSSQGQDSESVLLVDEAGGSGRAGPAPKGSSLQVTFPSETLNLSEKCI
Description: PG receptor affinity of compound F and compound J of the present invention was evaluated. Compound F used was one synthesized in Example 9, and compound J was prepared by separating and purifying the compound synthesized in Example 14 with a column (the same preparations were used in the following Examples). COS-7 cells were transfected with the genes of mouse EP4, human EP1-4 or human IP to overexpress the receptor and then the cell membranes were collected. […] The dissociation constant Kd value was obtained and inhibition constant Ki value of each test compound was determined in a conventional method.

[3] = test system: eye; assay: Local irritative effect on the eye in rabbits; format: in vivo; conditions: rabbit, single ocular instillation
Description: Japanese white rabbits (male, 10 weeks old, BIOTEC Co., Ltd.) were purchased, acclimated for 1 week and used for the study. Compound F solution (0.01 w/v %) was instilled once into the cornea of both eyes at a volume of 50 μL/eye with a micropipette. The intraocular pressure of the right eye was measured and the local irritative effect on the eye was evaluated using the left eye. After surface anesthesia with oxybupranol (Benoxil 0.4% instillation solution), the intraocular pressure was measured before ocular instillation and 1, 2, 3, 4, 6 and 8 hr after the instillation using a pneumatonometer (Alcon Ltd.). In addition, the local irritative effect on the eye was evaluated by scoring conjunctival congestion, conjunctival edema, cornea opacity, iris congestion, excretion and eye closure performance. For the evaluation, phosphate buffer was used for the solvent control group, and isopropyl unoprostone (Rescula eye drops, Santen Pharmaceutical Co., Ltd.) was used for comparison. Six animals were used for each group and the results were expressed as average.

[4] = test system: dextran sodium sulfate-induced colitis; assay: Dextran sodium sulfate-induced colitis in rats, prophylactic; format: in vivo, rat; conditions: SD rats, 5.5 w/v % DSS, oral 1 mg/kg and 3 mg/kg once a day
Description: Prophylactic effect of compound F on colitis was also studied in rats. Male SD rats, 7 weeks old, body weight around 210 g-240 g (Charles River) were purchased, acclimated for 1 week and used for the study. Except the normal group, the rats were allowed to freely drink a DSS (MP Biochemicals, M.W. 36,000-50,000, Lot No. 4556J) solution prepared to 5.5 w/v % for 8 days to induce colitis. Compound F at doses of 0.3, 1 and 3 mg/kg was orally administered once a day, daily, from one day before the start day of DSS drinking to one day before autopsy (day 7). To the control group was orally administered a solvent (1 vol % ethanol solution) at 5 mL/kg.
On day 8 from the start of DSS drinking, 1.25 w/v % Evans blue solution was administered at 0.2 mL/100 g from the tail vein. After 30 min, the rats were subjected to laparotomy under ether anesthesia and exsanguinated to death. Thereafter, the large intestine was dissected from just below the cecum to the anus, and the length was measured with a scale. […] The next day, the dry weight was measured, formamide (2 mL) was added, the dye was extracted at 50° C. overnight, and the level thereof was measured at 620 nm. A standard curve was prepared using an Evans blue standard solution, and the amount (mg) of Evans blue in 1 g of the colonic tissue was calculated to estimate degree of colonic tissue injury. […]

[5] = Effect on blood pressure and heart rate in mice; format: in vivo, mouse; conditions: ICR mice, intravenous 0.01 mg/kg, isoflurane anesthesia
Description: Male ICR mice (5 weeks old, Japan SLC) were purchased, acclimated for 6 days and used for the test. The animals were treated and measured under isoflurane inhalation anesthesia (anesthesia introduced at 2.5%, maintained at 1.8-2.1%), while body temperature was kept at 37° C. with a Heat Controller (ATC-402, Unique Medical Co., Ltd.). A catheter for administration of test compounds was inserted into the left femoral vein, and another catheter was inserted into the right femoral artery and connected to a pressure transducer to record each parameter of hemodynamics.
Compound F, the carboxylate form of compound F and BPS were intravenously administered at a dose of 0.01 mg/5 mL/kg, and the effect on the mean blood pressure and heart rate was evaluated with computer software for the analysis of hemodynamics (Fluclet, Dainippon Sumitomo Pharma Co., Ltd.). To the control group was intravenously administered a solvent (1.2% ethanol solution) at 5 mL/kg in the same manner. The results are expressed as a ratio of change in each parameter before and after the drug administration. Three to 6 animals were used for each group, and the results were expressed as average±standard deviation.

Affinity for human EP4 higher than to human EP1, EP2 and EP3 [2]: ≥ 60 fold
Affinity for human EP4 higher than to human IP [2]: ≥ 100 fold
SMILES: Cc1cccc([C@@H](C)[C@H](O)/C=C/[C@@H]2[C@@H]3[C@H](C[C@H]2O)O/C(=C\CCCc2nnn[nH]2)C3(F)F)c1 [Compound F, 4-[(Z)-(1S,5R,6R,7R)-6-[(1E,3R,4R)-3-hydroxy-4-(m-tolyl)-1-pentenyl]-7-hydroxy-2-oxa-4,4-difluoro-bicyclo[3.3.0]octan-3-ylidene]-1-(tetrazol-5-yl)butane]
Effect on total ulcer area (small intestine) ([1]; oral 1 mg/kg): completely reduced the area
Effect on total ulcer area (small intestine) ([1]; oral, from 0.1 mg/kg): significantly reduced the ulcer area in a dose-dependent manner
Local irritant effect on the eye [3]: conjunctival edema and eye closure were observed 1 hr after the instillation in some animals
Effect on stool score, colonic tissue injury and shortening of the large intestine [4]: suppressive tendency or significant suppressive effect
Effect on heart rate [5]: little effect
Maximum decrease ratio of mean blood pressure [5]: 16.2%

— patent US9034906B2, “EP4 agonist” (Asahi Glass Company, Limited, priority 2008, dated 2015)
